The test system of data set [1] is HIV-1 strain Bal: M-Tropic. The data set is described as follows: Human PBMC assay, p24 antigen ELISA, HIV1 clinical strain Bal. It counts as cell-based. An excerpt:
(§1) Anti-HIV Evaluation Using Four HIV1 Clinical Strains.
(§2) Four HIV1 clinical strains, BAL and SF162 (M-tropic), […], and 89.6 (a dual tropic strain), were used in the current study. Here a standardized human peripheral blood mononuclear cell culture (PBMC) assay was used to determine the compound susceptibility of these HIV-1 strains. AZT, an anti-HIV drug in clinical use, was used as a positive control. Briefly, human PBMCs were collected from a donor and stimulated for seven days. The preparations (compound or fraction) were then added to the cultured cells at a wide range of concentrations, and the different HIV-1 strains were used to challenge the cultured cells using 96-well plates. After seven-days of incubation, the supernatants were collected and the HIV p24 levels of the infected cells were determined using a p24 antigen ELISA. The ICsos were calculated by comparing p24 antigen values for the compounds (fraction)-containing wells with those for no drug control wells. In these experiments, AZT was used as positive controls.
On the technique in general: ELISA stands for enzyme-linked immunosorbent assay.

For data set [2], the system named is HIV-1 strain SF162: M-Tropic. The data set is described as follows: Human PBMC assay, p24 antigen ELISA, HIV1 clinical strain SF162. It counts as cell-based.
Text: as §1, §2

The subject of data set [3] is HIV-1 strain 89.6: Dual-Tropic. The data set can be described thus: Human PBMC assay, p24 antigen ELISA, HIV1 clinical strain 89.6. It counts as cell-based.
Text: as §1, §2

The subject of a further data set is four HIV-1 strains. The data set can be described thus: Human PBMC assay, p24 antigen ELISA, summary over the four HIV-1 strains. It counts as cell-based. To be noted: read-out: IC50, depending on the strains.
Text: Justiprocumins B (2) and patentiflorin A (3) were further evaluated against a broad spectrum of HIV strains including four HIV1 clinical strains, BAL and SF162 (M-tropic), […], and 89.6 (a dual tropic strain). In these experiments, AZT was used as a positive control. […] It is clear that justiprocumin B (2) and patentification A (3), like AZT, could inhibit the particle production of all four HIV-1 strains effectively in a dose-dependent manner.
as §1, §2

The test system of the next data set is HIV replication. The data set is described as follows: Anti-HIV Post-Entry protocol (HIV/HA pseudovirions, luciferase reporter, A549 target cells). It counts as cell-based. The note with it: for inhibition at 1 µg/mL: Human immunodeficiency virus 1, A549, read-out: inhibition of HIV replication. For orientation: Reporter assays use an easily measured gene product as a stand-in for the process of interest.

Data set [4] deals with HIV-1 strain Lav.04: T-Tropic. The data set can be described thus: Human PBMC assay, p24 antigen ELISA, HIV1 clinical strain Lav.04. It counts as cell-based.
Text: as §1, §2

In another data set the test system is A549 cell line. The data set is described as follows: Evaluation of toxicity (CellTiter 96), A549. It counts as cell-based, human. To be noted: at a concentration of 10 μg/mL. The procedure: (§3) Approximately 5000 cells seeded in a 96-well tissue culture plate in DMEM supplemented with FBS and penicillin/streptomycin. DMSO alone or compounds in 100% DMSO were added on the following day at appropriate concentrations and incubated with cells at 37° C. in 5% CO2 for 24 hr. After 24 hr, all media were removed and replaced with 100 μL fresh complete DMEM. After 48 hr post initial addition of DMSO or compound, 20 μL of CellTiter 96 Aqueous One Solution was added per well. After gentle mixing, plates were incubated at 37° C. in 5% CO2 for 4 hr. 25 μL of a 10% SDS solution was added per well and plates were stored at room temperature for approximately 12 hr. Absorbance was then measured at 450 nm using a plate reader.

In the next data set the test system is Hela cell line. The data set can be described thus: Evaluation of toxicity (CellTiter 96), Hela. It counts as cell-based. The note with it: at a concentration of 10 μg/mL. The procedure:
as §3

Data set [5] relates to HIV reverse transcription. The data set is described as follows: HIV gene expression of the R/U5 and U5/gag transcripts. It counts as cell-based.
[6] abbreviates: Human immunodeficiency virus 1, BAL, PBMC, 168 h, read-out: IC50 Bal: M-Tropic, human PBMC, p24 antigen, seven days.
The mark [7] stands for this setting: Human immunodeficiency virus 1, PBMC, 168 h, read-out: IC50 SF162: M-Tropic, human PBMC, p24 antigen, seven days.
Setting [8] is: Human immunodeficiency virus 1, PBMC, 168 h, read-out: IC50 89.6: Dual-Tropic, human PBMC, p24 antigen, seven days.
The mark [9] stands for this setting: Human immunodeficiency virus 1, PBMC.
The mark [10] stands for this setting: Human immunodeficiency virus 1, PBMC, 168 h, read-out: IC50 Lav.04: T-Tropic, human PBMC, p24 antigen, seven days.

Where two headings read alike, the source gives them in different places.

The term IC50 denotes the concentration that inhibits the measured activity by half. As a reminder, the inhibition is the percentage by which the read-out fell short of the control. For `COc1cc2c(O[C@@H]3O[C@H](C)[C@@H](O[C@@H]4O[C@H](CO)[C@@H](O)[C@H](O)[C@H]4O)[C@H](O)[C@H]3OC(C)=O)c3c(c(-c4ccc5c(c4)OCO5)c2cc1OC)C(=O)OC3` [Justiprocumin B (2), 9-(1,3-benzodioxol-5-yl)-4-[(2-O-acetyl-6-deoxy-4-O-β-D-glucopyranosyl-β-D-glucopyranosyl)oxy]-6,7-dimethoxy-naphtho[2,3-c]furan-1(3H)-one], the half-inhibitory concentration (IC50) in data set [1] (setting [6]) is 0.015 µM; in data set [2] (setting [7]), 0.014 µM; in data set [3] (setting [8]) it was 0.015 µM; in the data set with four HIV-1 strains (setting [9]) it was 0.014 to 0.021 µM; in data set [4] (setting [10]), 0.021 µM. In addition, the inhibition at 1 µg/mL in the data set on HIV replication is more than 100%.
Consider `Cc1cn([C@H]2C[C@H](N=[N+]=[N-])[C@@H](CO)O2)c(=O)[nH]c1=O` [AZT, zidovudine, reference compound], for which the IC50 in data set [1] (Human immunodeficiency virus 1, BAL, PBMC, 168 h, human PBMC, p24 antigen, seven days, read-out: IC50 Bal: M-Tropic) is 0.077 µM; in data set [2] (Human immunodeficiency virus 1, PBMC, 168 h, human PBMC, p24 antigen, seven days, read-out: IC50 SF162: M-Tropic), 0.085 µM; in [3] (Human immunodeficiency virus 1, PBMC, 168 h, human PBMC, p24 antigen, seven days, read-out: IC50 89.6: Dual-Tropic), 0.095 µM; in the data set with four HIV-1 strains (Human immunodeficiency virus 1, range over four HIV-1 strains, human PBMC), 0.077 to 0.095 µM; in data set [4] (Human immunodeficiency virus 1, PBMC, 168 h, human PBMC, p24 antigen, seven days, read-out: IC50 Lav.04: T-Tropic) it was 0.079 µM.
As to `COc1cc2c(OC3OC(C)C(O)C(O)C3O)c3c(c(-c4ccc5c(c4)OCO5)c2cc1OC)C(=O)OC3` (stereo not shown) [Patentiflorin A (3), patentiflorin A], the concentration for half-maximal inhibition (IC50) came to 0.03 µM in data set [1] (setting [6]); 0.032 µM in data set [1] (read-out: IC50 Bal: M-Tropic, human PBMC, p24 antigen, seven days, listed as Synthetic patentiflorin A (3)); 0.037 µM in data set [2] (setting [7]); 0.03 µM in data set [2] (read-out: IC50 SF162: M-Tropic, human PBMC, p24 antigen, seven days, listed as Synthetic patentiflorin A (3)); 0.032 µM in [3] (setting [8]); 0.031 µM in [3] (read-out: IC50 89.6: Dual-Tropic, human PBMC, p24 antigen, seven days, listed as Synthetic patentiflorin A (3)). Moreover, the half-inhibitory concentration (IC50) in the data set with four HIV-1 strains (setting [9]) is 0.024 to 0.037 µM; with HIV replication (Human immunodeficiency virus 1, A549, read-out: anti-HIV activity IC50), less than 0.01 µg/mL; in data set [4] (setting [10]), 0.024 µM; in data set [4] (read-out: IC50 Lav.04: T-Tropic, human PBMC, p24 antigen, seven days, listed as Synthetic patentiflorin A (3)) it was 0.032 µM. For the same compound, the “cytotoxicity against A549” value with A549 cell line was “no apparent cytotoxicity”. For the same compound, the “cytotoxicity against Hela” value with Hela cell line was “no apparent cytotoxicity”. For the same compound, the “inhibition of HIV reverse transcription (R/U5 and U5/gag transcripts)” value in [5] is “effective inhibitor of HIV reverse transcription”.
On to `COc1cc2c(O[C@@H]3O[C@H](C)[C@@H](O[C@@H]4O[C@H](CO)[C@@H](O)[C@H](O)[C@H]4O)[C@H](OC(C)=O)[C@H]3O)c3c(c(-c4ccc5c(c4)OCO5)c2cc1OC)C(=O)OC3` [Justiprocumin A (1), 9-(1,3-benzodioxol-5-yl)-4-[(3-O-acetyl-6-deoxy-4-O-β-D-glucopyranosyl-β-D-glucopyranosyl)oxy]-6,7-dimethoxy-naphtho[2,3-c]furan-1(3H)-one], for which the inhibition at 1 µg/mL with HIV replication was more than 100%.

Values taken from US20140357584A1 (priority 2011, published 2014).
